Tested on: Energy system protein genes
Assay: DNA chip mRNA expression in yeast, energy system protein genes (Table 4)
Assay type: cell-based, Saccharomyces cerevisiae S288C
Summary of the method: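 Cells were grown at 25° C. in YPD, treated at logarithmic phase for 2 h with a chemical at a concentration inhibiting growth but not causing death, and compared with untreated cultures. Labeled cDNA was hybridized to a DNA chip carrying all yeast genes, and the expression ratio was taken from scanner fluorescence.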

In the case of COc1cc(CNC(=O)CCCCC=CC(C)C)ccc1O [(12), 8-methyl-N-vanillyl-6-nonenamide], the “The level of expressed mRNA in the presence of chemical substance/The level of expressed mRNA in the absence of chemical substance” value (yeast gene YAL060W) is reported as 0.8, the “The level of expressed mRNA in the presence of chemical substance/The level of expressed mRNA in the absence of chemical substance” value (yeast gene YBL058W, cells incubated two hours with the chemical substance) is reported as 0.8 and the “The level of expressed mRNA in the presence of chemical substance/The level of expressed mRNA in the absence of chemical substance” value (yeast gene YBL099W, cells incubated two hours with the chemical substance) is reported as 1.0. For the same compound, the “The level of expressed mRNA in the presence of chemical substance/The level of expressed mRNA in the absence of chemical substance” value (yeast gene YBR001C, cells incubated two hours with the chemical substance) was 1.0, the “The level of expressed mRNA in the presence of chemical substance/The level of expressed mRNA in the absence of chemical substance” value (yeast gene YBR185C, cells incubated two hours with the chemical substance) was 0.7 and the “The level of expressed mRNA in the presence of chemical substance/The level of expressed mRNA in the absence of chemical substance” value (yeast gene YBR221C, cells incubated two hours with the chemical substance) was 1.3. For the same compound, the “The level of expressed mRNA in the presence of chemical substance/The level of expressed mRNA in the absence of chemical substance” value (yeast gene YCL040W) was 2.3, the “The level of expressed mRNA in the presence of chemical substance/The level of expressed mRNA in the absence of chemical substance” value (yeast gene YCR005C) was 0.5 and the “The level of expressed mRNA in the presence of chemical substance/The level of expressed mRNA in the absence of chemical substance” value (yeast gene YCR012W) was 1.2. The “The level of expressed mRNA in the presence of chemical substance/The level of expressed mRNA in the absence of chemical substance” value (yeast gene YCR046C, cells incubated two hours with the chemical substance) was 1.1, the “The level of expressed mRNA in the presence of chemical substance/The level of expressed mRNA in the absence of chemical substance” value (yeast gene YCR105W, cells incubated two hours with the chemical substance) was 0.9 and the “The level of expressed mRNA in the presence of chemical substance/The level of expressed mRNA in the absence of chemical substance” value (yeast gene YDL021W) was 2.4. For the same compound, the “The level of expressed mRNA in the presence of chemical substance/The level of expressed mRNA in the absence of chemical substance” value (yeast gene YDL067C, cells incubated two hours with the chemical substance) was 1.0, the “The level of expressed mRNA in the presence of chemical substance/The level of expressed mRNA in the absence of chemical substance” value (yeast gene YDL078C, cells incubated two hours with the chemical substance) was 0.8 and the “The level of expressed mRNA in the presence of chemical substance/The level of expressed mRNA in the absence of chemical substance” value (yeast gene YDL107W, cells incubated two hours with the chemical substance) was 1.0. The “The level of expressed mRNA in the presence of chemical substance/The level of expressed mRNA in the absence of chemical substance” value (yeast gene YDL174C) was 2.8, the “The level of expressed mRNA in the presence of chemical substance/The level of expressed mRNA in the absence of chemical substance” value (yeast gene YDL181W, cells incubated two hours with the chemical substance) was 0.9 and the “The level of expressed mRNA in the presence of chemical substance/The level of expressed mRNA in the absence of chemical substance” value (yeast gene YDR001C) was 1.1. For the same compound, the “The level of expressed mRNA in the presence of chemical substance/The level of expressed mRNA in the absence of chemical substance” value (yeast gene YDR050C, cells incubated two hours with the chemical substance) was 1.4, the “The level of expressed mRNA in the presence of chemical substance/The level of expressed mRNA in the absence of chemical substance” value (yeast gene YDR079W, cells incubated two hours with the chemical substance) was 1.1 and the “The level of expressed mRNA in the presence of chemical substance/The level of expressed mRNA in the absence of chemical substance” value (yeast gene YDR178W, cells incubated two hours with the chemical substance) was 1.3. For the same compound, the “The level of expressed mRNA in the presence of chemical substance/The level of expressed mRNA in the absence of chemical substance” value (yeast gene YDR231C) was 1.1, the “The level of expressed mRNA in the presence of chemical substance/The level of expressed mRNA in the absence of chemical substance” value (yeast gene YDR298C, cells incubated two hours with the chemical substance) was 1.1 and the “The level of expressed mRNA in the presence of chemical substance/The level of expressed mRNA in the absence of chemical substance” value (yeast gene YDR377W, cells incubated two hours with the chemical substance) was 0.9. For the same compound, the “The level of expressed mRNA in the presence of chemical substance/The level of expressed mRNA in the absence of chemical substance” value (yeast gene YDR529C, cells incubated two hours with the chemical substance) was 0.6, the “The level of expressed mRNA in the presence of chemical substance/The level of expressed mRNA in the absence of chemical substance” value (yeast gene YEL024W, cells incubated two hours with the chemical substance) was 0.8 and the “The level of expressed mRNA in the presence of chemical substance/The level of expressed mRNA in the absence of chemical substance” value (yeast gene YEL039C, cells incubated two hours with the chemical substance) was 0.6. The “The level of expressed mRNA in the presence of chemical substance/The level of expressed mRNA in the absence of chemical substance” value (yeast gene YER178W) was 1.3, the “The level of expressed mRNA in the presence of chemical substance/The level of expressed mRNA in the absence of chemical substance” value (yeast gene YFL057C) was 1.0 and the “The level of expressed mRNA in the presence of chemical substance/The level of expressed mRNA in the absence of chemical substance” value (yeast gene YFR053C) was 1.7. The “The level of expressed mRNA in the presence of chemical substance/The level of expressed mRNA in the absence of chemical substance” value (yeast gene YGL018C, cells incubated two hours with the chemical substance) was 1.0, the “The level of expressed mRNA in the presence of chemical substance/The level of expressed mRNA in the absence of chemical substance” value (yeast gene YGL062W) was 1.6 and the “The level of expressed mRNA in the presence of chemical substance/The level of expressed mRNA in the absence of chemical substance” value (yeast gene YGL187C, cells incubated two hours with the chemical substance) was 0.8. The “The level of expressed mRNA in the presence of chemical substance/The level of expressed mRNA in the absence of chemical substance” value (yeast gene YGL191W, cells incubated two hours with the chemical substance) was 0.9, the “The level of expressed mRNA in the presence of chemical substance/The level of expressed mRNA in the absence of chemical substance” value (yeast gene YGL205W, cells incubated two hours with the chemical substance) was 1.1 and the “The level of expressed mRNA in the presence of chemical substance/The level of expressed mRNA in the absence of chemical substance” value (yeast gene YGL256W, cells incubated two hours with the chemical substance) was 0.9. For the same compound, the “The level of expressed mRNA in the presence of chemical substance/The level of expressed mRNA in the absence of chemical substance” value (yeast gene YGR043C) was 3.3, the “The level of expressed mRNA in the presence of chemical substance/The level of expressed mRNA in the absence of chemical substance” value (yeast gene YGR062C, cells incubated two hours with the chemical substance, 25° C., YPD medium) was 1.0 and the “The level of expressed mRNA in the presence of chemical substance/The level of expressed mRNA in the absence of chemical substance” value (yeast gene YGR087C, cells incubated two hours with the chemical substance) was 1.2. For the same compound, the “The level of expressed mRNA in the presence of chemical substance/The level of expressed mRNA in the absence of chemical substance” value (yeast gene YGR174C, cells incubated two hours with the chemical substance) was 0.9, the “The level of expressed mRNA in the presence of chemical substance/The level of expressed mRNA in the absence of chemical substance” value (yeast gene YGR192C) was 2.2 and the “The level of expressed mRNA in the presence of chemical substance/The level of expressed mRNA in the absence of chemical substance” value (yeast gene YGR244C) was 1.9. The “The level of expressed mRNA in the presence of chemical substance/The level of expressed mRNA in the absence of chemical substance” value (yeast gene YGR254W) was 1.7, the “The level of expressed mRNA in the presence of chemical substance/The level of expressed mRNA in the absence of chemical substance” value (yeast gene YHR179W) was 2.2 and the “The level of expressed mRNA in the presence of chemical substance/The level of expressed mRNA in the absence of chemical substance” value (yeast gene YIL160C) was 1.0. For the same compound, the “The level of expressed mRNA in the presence of chemical substance/The level of expressed mRNA in the absence of chemical substance” value (yeast gene YIR031C, cells incubated two hours with the chemical substance) was 0.8, the “The level of expressed mRNA in the presence of chemical substance/The level of expressed mRNA in the absence of chemical substance” value (yeast gene YJL052W) was 2.4 and the “The level of expressed mRNA in the presence of chemical substance/The level of expressed mRNA in the absence of chemical substance” value (yeast gene YJL121C, cells incubated two hours with the chemical substance) was 0.6. For the same compound, the “The level of expressed mRNA in the presence of chemical substance/The level of expressed mRNA in the absence of chemical substance” value (yeast gene YJL166W, cells incubated two hours with the chemical substance) was 0.7, the “The level of expressed mRNA in the presence of chemical substance/The level of expressed mRNA in the absence of chemical substance” value (yeast gene YJL216C, cells incubated two hours with the chemical substance) was 1.0 and the “The level of expressed mRNA in the presence of chemical substance/The level of expressed mRNA in the absence of chemical substance” value (yeast gene YJR009C) was 1.5.

From US8192962B2, “Processes for detecting toxic substances” (Daikin Industries, Ltd., priority 2001, dated 2012)
